Experimental data reported in patent publication US20230365546A1, “5-SUBSTITUTED INDOLE 3-AMIDE DERIVATIVES, PREPARATION METHOD AND USE THEREOF” (ORIGIANT PHARMACEUTICAL CO., LTD, priority 2020, published 2023).

Experiments:
Experiment in all cases: Kinase Profiler 10 μM panel
TTBK1(h) = TTBK1(h) (Homo sapiens (Human), UniProt Q5TCY1)
Protocol: (§1) In vitro kinase assays were conducted using Kinase Profiler services provided by Eurofins. The experimental method was as follows: the small molecule compound to be tested (0.001-10 μM), the protein kinase to be tested were incubated with a buffer containing substrate, 10 mM magnesium acetate, and [γ-^33P-ATP], the reaction was started by adding Mg\TPmix, after incubation for a period of time at room temperature, a 3% phosphate solution was added to the buffer to stop the reaction. Subsequently, 10 μL of the reaction mixture was quantitatively pipetted onto P30 filter paper, which was washed three times with 75 mM phosphate solution and then once with methanol. The P30 filter paper was air-dried and scintillation fluid was added for scintillation counting.

[1] = molecular target: PI3 Kinase (p110d/p85a)(h) (Homo sapiens (Human), UniProt O00329)
Protocol: as §1

STK16(h) = STK16(h) (Homo sapiens (Human), UniProt O75716)
Protocol: as §1

CaMKIIγ(h) = CaMKIIγ(h) (Homo sapiens (Human), UniProt Q13555)
Chain of CaMKIIγ(h) (Q13555 whole entry): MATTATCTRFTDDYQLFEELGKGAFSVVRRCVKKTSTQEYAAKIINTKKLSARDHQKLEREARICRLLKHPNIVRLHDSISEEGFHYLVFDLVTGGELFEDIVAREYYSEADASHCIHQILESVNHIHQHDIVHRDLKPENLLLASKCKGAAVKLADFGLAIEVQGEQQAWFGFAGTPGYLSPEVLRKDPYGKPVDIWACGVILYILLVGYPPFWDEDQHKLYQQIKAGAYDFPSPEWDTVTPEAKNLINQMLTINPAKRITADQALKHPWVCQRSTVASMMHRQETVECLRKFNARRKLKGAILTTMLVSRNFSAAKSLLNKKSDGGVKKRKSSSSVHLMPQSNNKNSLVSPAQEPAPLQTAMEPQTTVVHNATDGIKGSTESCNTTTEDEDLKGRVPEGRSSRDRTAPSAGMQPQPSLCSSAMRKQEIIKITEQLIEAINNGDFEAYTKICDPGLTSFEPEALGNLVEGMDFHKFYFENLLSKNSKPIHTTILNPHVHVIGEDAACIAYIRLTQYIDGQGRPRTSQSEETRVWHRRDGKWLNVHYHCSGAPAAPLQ
Protocol: as §1

CDK5/p35(h) = CDK5/p35(h) (Homo sapiens (Human), UniProt Q00535)
Protocol: as §1

CaMKK1(h) = CaMKK1(h) (Homo sapiens (Human), UniProt Q8N5S9)
Protocol: as §1

ErbB4(h) = ErbB4(h) (Homo sapiens (Human), UniProt Q15303)
Protocol: as §1

CaMKIIδ(h) = CaMKIIδ(h) (Homo sapiens (Human), UniProt Q13557)
Chain of CaMKIIδ(h) (Q13557 whole entry): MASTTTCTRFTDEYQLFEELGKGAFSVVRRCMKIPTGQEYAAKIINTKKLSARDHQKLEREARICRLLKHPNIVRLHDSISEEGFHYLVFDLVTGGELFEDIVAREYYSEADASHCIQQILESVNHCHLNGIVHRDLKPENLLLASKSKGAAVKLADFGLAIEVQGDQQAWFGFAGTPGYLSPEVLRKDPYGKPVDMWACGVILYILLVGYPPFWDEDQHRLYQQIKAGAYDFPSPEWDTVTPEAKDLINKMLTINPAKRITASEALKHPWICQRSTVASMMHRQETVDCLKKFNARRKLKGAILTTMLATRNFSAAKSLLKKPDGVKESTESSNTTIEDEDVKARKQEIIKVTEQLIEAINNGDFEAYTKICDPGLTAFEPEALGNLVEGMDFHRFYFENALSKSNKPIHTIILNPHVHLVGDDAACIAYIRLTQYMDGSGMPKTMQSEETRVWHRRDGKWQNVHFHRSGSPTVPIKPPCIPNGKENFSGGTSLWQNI
Protocol: as §1

CDK5/p25(h) = CDK5/p25(h) (Homo sapiens (Human), UniProt Q00535)
Protocol: as §1

SRMS(h) = SRMS(h) (Homo sapiens (Human), UniProt Q9H3Y6)
Chain of SRMS(h) (Q9H3Y6 whole entry): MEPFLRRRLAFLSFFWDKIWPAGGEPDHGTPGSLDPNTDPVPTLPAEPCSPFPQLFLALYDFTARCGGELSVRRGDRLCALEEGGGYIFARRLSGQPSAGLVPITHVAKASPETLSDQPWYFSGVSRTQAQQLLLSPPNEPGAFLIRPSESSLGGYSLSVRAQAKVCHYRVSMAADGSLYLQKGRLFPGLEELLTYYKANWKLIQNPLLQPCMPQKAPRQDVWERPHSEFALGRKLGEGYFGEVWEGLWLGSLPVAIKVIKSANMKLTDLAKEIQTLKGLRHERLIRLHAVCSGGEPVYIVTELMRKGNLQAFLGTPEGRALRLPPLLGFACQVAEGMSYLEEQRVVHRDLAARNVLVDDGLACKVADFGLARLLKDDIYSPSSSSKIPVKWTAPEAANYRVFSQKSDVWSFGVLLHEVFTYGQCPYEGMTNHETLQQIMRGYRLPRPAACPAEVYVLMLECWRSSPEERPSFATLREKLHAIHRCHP
Protocol: as §1

Fyn(h) = Fyn(h) (Homo sapiens (Human), UniProt P06241)
Chain of Fyn(h) (P06241 whole entry): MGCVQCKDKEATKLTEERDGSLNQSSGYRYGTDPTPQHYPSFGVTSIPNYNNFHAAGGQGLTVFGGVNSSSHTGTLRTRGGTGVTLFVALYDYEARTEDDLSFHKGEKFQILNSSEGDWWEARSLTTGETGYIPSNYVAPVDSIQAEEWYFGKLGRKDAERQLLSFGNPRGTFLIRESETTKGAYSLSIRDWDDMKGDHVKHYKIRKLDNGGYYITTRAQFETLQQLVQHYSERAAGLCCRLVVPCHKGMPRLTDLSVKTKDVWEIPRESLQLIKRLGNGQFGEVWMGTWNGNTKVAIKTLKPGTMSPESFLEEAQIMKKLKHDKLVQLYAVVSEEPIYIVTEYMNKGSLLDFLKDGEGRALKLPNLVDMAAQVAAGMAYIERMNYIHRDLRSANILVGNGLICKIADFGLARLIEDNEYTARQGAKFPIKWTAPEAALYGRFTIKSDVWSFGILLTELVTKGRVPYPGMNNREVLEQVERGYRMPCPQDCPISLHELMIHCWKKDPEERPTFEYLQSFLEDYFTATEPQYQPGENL
Protocol: as §1

CaMKIIβ(h) = CaMKIIβ(h) (Homo sapiens (Human), UniProt Q13554)
Protocol: as §1

ZAP-70(h) = ZAP-70(h) (Homo sapiens (Human), UniProt P43403)
Protocol: as §1

MEKK2(h) = MEKK2(h) (Homo sapiens (Human), UniProt Q9Y2U5)
Protocol: as §1

PDHK4(h) = PDHK4(h) (Homo sapiens (Human), UniProt Q16654)
Protocol: as §1

MST2(h) = MST2(h) (Homo sapiens (Human), UniProt Q13188)
Protocol: as §1

EGFR(h) = EGFR(h) (Homo sapiens (Human), UniProt P00533)
Protocol: as §1

EphB2(h) = EphB2(h) (Homo sapiens (Human), UniProt P29323)
Protocol: as §1

Pim-2(h) = Pim-2(h) (Homo sapiens (Human), UniProt Q9P1W9)
Protocol: as §1

c-RAF(h) = c-RAF(h) (Homo sapiens (Human), UniProt P04049, Y340D/Y341D)
Protocol: as §1

Snk(h) = Snk(h) (Homo sapiens (Human), UniProt Q9NYY3)
Chain of Snk(h) (Q9NYY3 whole entry): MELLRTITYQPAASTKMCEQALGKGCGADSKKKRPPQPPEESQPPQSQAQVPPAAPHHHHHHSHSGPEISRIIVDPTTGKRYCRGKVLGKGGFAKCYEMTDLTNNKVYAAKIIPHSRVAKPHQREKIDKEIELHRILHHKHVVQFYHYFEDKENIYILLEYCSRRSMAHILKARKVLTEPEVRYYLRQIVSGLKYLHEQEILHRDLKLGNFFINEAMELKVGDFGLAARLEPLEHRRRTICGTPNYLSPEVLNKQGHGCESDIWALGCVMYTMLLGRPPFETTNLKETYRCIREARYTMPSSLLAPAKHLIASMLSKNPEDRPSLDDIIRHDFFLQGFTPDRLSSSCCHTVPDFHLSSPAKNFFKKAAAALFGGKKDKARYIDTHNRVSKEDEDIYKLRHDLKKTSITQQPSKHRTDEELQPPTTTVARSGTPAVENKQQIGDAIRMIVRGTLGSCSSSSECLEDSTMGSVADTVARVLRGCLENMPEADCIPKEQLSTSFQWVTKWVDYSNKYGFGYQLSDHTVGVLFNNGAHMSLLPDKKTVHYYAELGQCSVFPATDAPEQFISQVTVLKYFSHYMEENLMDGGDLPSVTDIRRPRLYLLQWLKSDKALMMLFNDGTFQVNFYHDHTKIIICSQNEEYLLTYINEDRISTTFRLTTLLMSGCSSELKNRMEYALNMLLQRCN
Protocol: as §1

SRPK1(h) = SRPK1(h) (Homo sapiens (Human), UniProt Q96SB4)
Protocol: as §1

TYK2(h) = TYK2(h) (Homo sapiens (Human), UniProt P29597)
Protocol: as §1

LTK(h) = LTK(h) (Homo sapiens (Human), UniProt P29376)
Protocol: as §1

TrkC(h) = TrkC(h) (Homo sapiens (Human), UniProt Q16288)
Protocol: as §1

VRK2(h) = VRK2(h) (Homo sapiens (Human), UniProt Q86Y07)
Protocol: as §1

MYLK2(h) = MYLK2(h) (Homo sapiens (Human), UniProt Q9H1R3)
Protocol: as §1

SAPK2a(T106M)(h) = SAPK2a(T106M)(h) (Homo sapiens (Human), UniProt Q16539, T106M)
Chain of SAPK2a(T106M)(h) (Q16539 whole entry T106M): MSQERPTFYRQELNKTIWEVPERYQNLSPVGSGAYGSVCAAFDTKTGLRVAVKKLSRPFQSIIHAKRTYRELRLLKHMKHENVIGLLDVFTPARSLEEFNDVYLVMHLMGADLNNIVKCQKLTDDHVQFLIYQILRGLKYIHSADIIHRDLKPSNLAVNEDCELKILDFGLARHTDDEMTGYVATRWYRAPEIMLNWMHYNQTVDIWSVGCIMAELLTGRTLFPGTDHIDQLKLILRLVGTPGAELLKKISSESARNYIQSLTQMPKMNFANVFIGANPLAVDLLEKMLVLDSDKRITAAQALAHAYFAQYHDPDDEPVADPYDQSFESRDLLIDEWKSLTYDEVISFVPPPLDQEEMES
Protocol: as §1

ASK1(h) = ASK1(h) (Homo sapiens (Human), UniProt Q99683)
Protocol: as §1

CDK2/cyclinE(h) = CDK2/cyclinE(h) (Homo sapiens (Human), UniProt P24941)
Protocol: as §1

Mnk2(h) = Mnk2(h) (Homo sapiens (Human), UniProt Q9HBH9)
Protocol: as §1

Ret(h) = Ret(h) (Homo sapiens (Human), UniProt P07949)
Chain of Ret(h) (P07949 29-1114): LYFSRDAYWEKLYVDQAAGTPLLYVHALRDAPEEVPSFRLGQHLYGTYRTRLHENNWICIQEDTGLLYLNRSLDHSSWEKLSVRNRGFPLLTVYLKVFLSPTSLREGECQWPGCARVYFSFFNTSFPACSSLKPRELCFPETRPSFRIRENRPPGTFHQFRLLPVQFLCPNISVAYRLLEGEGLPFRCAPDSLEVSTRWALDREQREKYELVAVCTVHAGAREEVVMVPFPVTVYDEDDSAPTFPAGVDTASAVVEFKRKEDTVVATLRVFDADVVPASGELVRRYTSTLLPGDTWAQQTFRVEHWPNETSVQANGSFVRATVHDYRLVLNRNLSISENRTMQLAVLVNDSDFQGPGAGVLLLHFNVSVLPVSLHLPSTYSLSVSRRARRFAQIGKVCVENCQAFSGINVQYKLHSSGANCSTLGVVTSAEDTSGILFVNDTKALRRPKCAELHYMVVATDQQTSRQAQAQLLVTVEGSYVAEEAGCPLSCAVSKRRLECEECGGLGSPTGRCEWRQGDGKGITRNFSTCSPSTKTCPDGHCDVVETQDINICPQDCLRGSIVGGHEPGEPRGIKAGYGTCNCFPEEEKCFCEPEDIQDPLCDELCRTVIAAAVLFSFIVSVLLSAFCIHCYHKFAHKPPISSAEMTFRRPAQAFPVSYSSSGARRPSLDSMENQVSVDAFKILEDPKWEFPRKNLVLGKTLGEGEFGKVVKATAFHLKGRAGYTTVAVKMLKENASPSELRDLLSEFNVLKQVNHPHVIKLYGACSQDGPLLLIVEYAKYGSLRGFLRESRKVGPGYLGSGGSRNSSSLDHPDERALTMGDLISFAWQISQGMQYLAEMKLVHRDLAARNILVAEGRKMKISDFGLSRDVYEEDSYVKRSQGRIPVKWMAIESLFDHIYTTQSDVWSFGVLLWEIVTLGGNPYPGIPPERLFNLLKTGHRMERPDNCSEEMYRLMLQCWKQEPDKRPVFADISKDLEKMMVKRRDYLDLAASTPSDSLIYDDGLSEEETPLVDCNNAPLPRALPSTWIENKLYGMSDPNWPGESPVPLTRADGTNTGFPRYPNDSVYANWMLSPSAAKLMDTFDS
Protocol: as §1

MAP4K4(h) = MAP4K4(h) (Homo sapiens (Human), UniProt O95819)
Protocol: as §1

Haspin(h) = Haspin(h) (Homo sapiens (Human), UniProt Q8TF76)
Chain of Haspin(h) (Q8TF76 whole entry): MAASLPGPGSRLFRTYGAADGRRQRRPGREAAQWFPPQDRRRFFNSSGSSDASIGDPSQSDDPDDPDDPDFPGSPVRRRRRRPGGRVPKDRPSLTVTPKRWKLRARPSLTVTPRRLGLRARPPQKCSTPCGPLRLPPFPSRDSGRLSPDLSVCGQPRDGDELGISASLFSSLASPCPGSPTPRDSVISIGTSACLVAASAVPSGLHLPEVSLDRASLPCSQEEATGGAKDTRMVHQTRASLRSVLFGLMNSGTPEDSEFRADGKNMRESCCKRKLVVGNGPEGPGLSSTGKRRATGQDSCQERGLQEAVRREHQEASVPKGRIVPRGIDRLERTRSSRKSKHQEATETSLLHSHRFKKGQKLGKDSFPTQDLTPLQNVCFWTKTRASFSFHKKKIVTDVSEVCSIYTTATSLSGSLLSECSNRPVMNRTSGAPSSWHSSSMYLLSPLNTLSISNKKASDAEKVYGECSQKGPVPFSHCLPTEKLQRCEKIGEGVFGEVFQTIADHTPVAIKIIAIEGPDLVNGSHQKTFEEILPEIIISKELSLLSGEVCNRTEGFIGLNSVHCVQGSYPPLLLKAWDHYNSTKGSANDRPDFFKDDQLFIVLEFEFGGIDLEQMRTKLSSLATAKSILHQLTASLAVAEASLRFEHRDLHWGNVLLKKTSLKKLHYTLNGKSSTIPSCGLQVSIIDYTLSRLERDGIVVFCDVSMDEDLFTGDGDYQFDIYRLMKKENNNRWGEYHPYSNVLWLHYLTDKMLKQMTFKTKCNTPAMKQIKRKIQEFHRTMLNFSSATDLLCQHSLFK
Protocol: as §1

C[C@H](NC(=O)c1c[nH]c2ccc(-c3ccc4nc(NC(=O)C5CC5)sc4c3)cc12)c1cccc(F)c1 [Compound 34, (S)-5-(2-(cyclopropanecarboxamido)benzo[d]thiazol-6-yl)-N-(1-(3-fluorophenyl)ethyl)-1H-indole-3-carboxamide]
Inhibition ratio (TTBK1(h)): 4% | Inhibition ratio [1]: 54% | Inhibition ratio (STK16(h)): 17% | Inhibition ratio (CaMKIIγ(h)): 2% | Inhibition ratio (CDK5/p35(h)): −7% | Inhibition ratio (CaMKK1(h)): 74% | Inhibition ratio (ErbB4(h)): 22% | Inhibition ratio (CaMKIIδ(h)): 22% | Inhibition ratio (CDK5/p25(h)): 16% | Inhibition ratio (SRMS(h)): 12% | Inhibition ratio (Fyn(h)): 43% | Inhibition ratio (CaMKIIβ(h)): 21% | Inhibition ratio (ZAP-70(h)): 8% | Inhibition ratio (MEKK2(h)): 3% | Inhibition ratio (PDHK4(h)): 72% | Inhibition ratio (MST2(h)): −9% | Inhibition ratio (EGFR(h)): 19% | Inhibition ratio (EphB2(h)): 42% | Inhibition ratio (Pim-2(h)): −5% | Inhibition ratio (c-RAF(h)): 15% | Inhibition ratio (Snk(h)): 0% | Inhibition ratio (SRPK1(h)): 29% | Inhibition ratio (TYK2(h)): 12% | Inhibition ratio (LTK(h)): 23% | Inhibition ratio (TrkC(h)): 104% | Inhibition ratio (VRK2(h)): 21% | Inhibition ratio (MYLK2(h)): 55% | Inhibition ratio (SAPK2a(T106M)(h)): 63% | Inhibition ratio (ASK1(h)): 12% | Inhibition ratio (CDK2/cyclinE(h)): 9% | Inhibition ratio (Mnk2(h)): 38% | Inhibition ratio (Ret(h)): 96% | Inhibition ratio (MAP4K4(h)): 98% | Inhibition ratio (Haspin(h)): 39%

C[C@H](NC(=O)c1cn(C)c2ccc(-c3ccn4nc(NC(=O)C5CC5)nc4c3)cc12)c1cccc(F)c1 [Compound 94, (S)-5-(2-(cyclopropanecarboxamido)-[1,2,4]triazolo[1,5-a]pyridin-7-yl)-N-(1-(3-fluorophenyl)ethyl)-1-methyl-1H-indole-3-carboxamide]
Inhibition ratio/% (TTBK1(h)): 13% | Inhibition ratio/% [1]: −1% | Inhibition ratio/% (STK16(h)): 20% | Inhibition ratio/% (CaMKIIγ(h)): −15% | Inhibition ratio/% (CDK5/p35(h)): −8% | Inhibition ratio/% (CaMKK1(h)): 35% | Inhibition ratio/% (ErbB4(h)): 63% | Inhibition ratio/% (CaMKIIδ(h)): −11% | Inhibition ratio/% (CDK5/p25(h)): 46% | Inhibition ratio/% (SRMS(h)): 43% | Inhibition ratio/% (Fyn(h)): −43% | Inhibition ratio/% (CaMKIIβ(h)): 78% | Inhibition ratio/% (ZAP-70(h)): 1% | Inhibition ratio/% (MEKK2(h)): −10% | Inhibition ratio/% (PDHK4(h)): −18% | Inhibition ratio/% (MST2(h)): −14% | Inhibition ratio/% (EGFR(h)): 10% | Inhibition ratio/% (EphB2(h)): 48% | Inhibition ratio/% (Pim-2(h)): −14% | Inhibition ratio/% (c-RAF(h)): −13% | Inhibition ratio/% (Snk(h)): 1% | Inhibition ratio/% (SRPK1(h)): 50% | Inhibition ratio/% (TYK2(h)): 50% | Inhibition ratio/% (LTK(h)): 5% | Inhibition ratio/% (TrkC(h)): 28% | Inhibition ratio/% (VRK2(h)): −18% | Inhibition ratio/% (MYLK2(h)): −8% | Inhibition ratio/% (SAPK2a(T106M)(h)): −20% | Inhibition ratio/% (ASK1(h)): 38% | Inhibition ratio/% (CDK2/cyclinE(h)): 36% | Inhibition ratio/% (Mnk2(h)): 51% | Inhibition ratio/% (Ret(h)): 50% | Inhibition ratio/% (MAP4K4(h)): −3% | Inhibition ratio/% (Haspin(h)): 48%
